Laboratory results from US8895502B2, “β2-glycoprotein I peptide inhibitors” (Kansas State University Research Foundation, priority 2010, dated 2014).
Ends that are not written are not given here.

Test system: Fvb/N-Tg(MMTV-PyVT)634Mul/J mice mammary tumors
Test: Spontaneous breast cancer model, tumor growth
Type: in vivo, mouse
Settings: 40 μM retro-orbital 3 times per week for 7 weeks after palpable tumor
Method: Ten […] Fvb/N-Tg(MMTV-PyVT)634Mul/J mice were generously donated by T. A. Nguyen and maintained under 12 h light/dark cycles at Kansas State University, Division of Biology (Manhattan, Kans.). These mice are Her2^+ Estrogen receptor α/β^+, Progesterone receptor^+, p53^+ animal models that spontaneously develop breast cancer. All mice were allowed access to food and water ad libitum and maintained under specific pathogen free conditions. Research was conducted in compliance with the Animal Welfare Act and other federal statutes and regulations relating to animals and experiments involving animals and was approved by the Institutional Animal Care and Use Committee.
Mice were observed 3 times a week until tumors were palpable. Randomly, mice were assigned to receive treatment with N. Saline or peptide 296c-s. Each peptide treated mouse received β2-Glycoprotein 1 Peptide 296c-s (40 μM) by retro-orbital injection three times a week for 7 additional weeks. N. Saline treated mice received the same volume (80 μL) of 0.15M normal saline retro-orbitally three times a week as a control group.
Tumors were measured by hand with calipers three times a week for 7 weeks after the start of injection. After 7 weeks, the mice were briefly anesthetized using isofluorene followed by cervical dislocation euthanization and the tumors were harvested. The tumors were measured volumetrically. […]

H-IHFYSKNKEKKSSYTVEAHSRDGTI-OH [peptide 296Cys-Ser]
percent tumor growth compared to initial measurements: significantly decreased
